Reference: BindingDB's records for doi:10.1002/cbic.201600655 (University At Albany, 2017)

Target: NAD-dependent protein deacylase sirtuin-6 (Homo sapiens, UniProt Q8N6T7)
Test: Fluorimetric Assay
Experimental: Inhibitory constants (Ki) and IC50 values were determined under saturating substrate conditions by using a fluorimetric assay (components were purchased separately). […] Sirtuin deacetylation of the substrate renders the fluorophore-substrate bond susceptible to treatment with […]. Trypsin cleavage releases the fluorophore, resulting in an increase in fluorescence. Fluorescence intensity was measured on a Synergy HT Multi-Mode microplate fluorescence reader.

NAD-dependent protein deacylase sirtuin-6, sequence (Q8N6T7 whole entry): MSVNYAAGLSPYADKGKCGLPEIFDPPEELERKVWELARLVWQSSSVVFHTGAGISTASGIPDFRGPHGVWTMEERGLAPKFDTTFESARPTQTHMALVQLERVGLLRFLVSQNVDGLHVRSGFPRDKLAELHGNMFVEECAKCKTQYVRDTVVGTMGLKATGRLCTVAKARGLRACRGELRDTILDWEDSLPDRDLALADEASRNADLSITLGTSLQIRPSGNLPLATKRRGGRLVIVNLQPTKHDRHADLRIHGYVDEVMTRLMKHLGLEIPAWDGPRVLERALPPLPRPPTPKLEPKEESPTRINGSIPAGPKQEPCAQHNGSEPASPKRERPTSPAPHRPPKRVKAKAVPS

Row | IC50 [µM] | Structure (SMILES)
1 | 417 | NC(=O)c1cnccn1 [Pyrazinamide]
2 | 927 | O=C(O)c1cnccn1
